From publication PMC8625693, “Synthesis and Structure-Activity Relationships of New 2-Phenoxybenzamides with Antiplasmodial Activity” (Pharmaceuticals, 2021)
Like-named read-outs stand apart in the source and are kept apart here.

Key:
[1] = tested on: P. falciparum NF54; test: In vitro microplate assay against P. falciparum NF54 (3H-hypoxanthine incorporation, erythrocytic stages); type: cell-based, Plasmodium falciparum; settings: average of four determinations, read-out: P.f. NF54 IC50
Experimental: (§1) All newly synthesized compounds were tested for their antiplasmodial activity against the chloroquine-sensitive strain Plasmodium falciparum NF54. Cytotoxicity was determined using rat skeletal myofibroblasts (L-6 cells). As standards chloroquine and podophyllotoxin were used.
In vitro activity against erythrocytic stages of P. falciparum was determined with a ^3H-hypoxanthine incorporation assay, using the chloroquine sensitive NF54 strain [44]. Chloroquine (Sigma C6628) was used as standard. Test compounds were dissolved in DMSO at 10 mg/mL and added to parasite cultures incubated in RPMI 1640 medium without hypoxanthine, supplemented with HEPES (5.94 g/L, NaHCO3 (2.1 g/L), neomycin (100 U/mL), Albumax (5 g/L) and washed human red blood cells A^+ at 2.5% hematocrit (0.3% parasitemia). Serial drug dilutions of 11 3-fold dilution steps (covering a range from 100–0.002 µg/mL) were prepared. The 96-well plates were incubated at a humidified atmosphere at 37 °C; 4% CO2, 3% O2, 93% N2. After 48 h, 0.05 mL of ^3H-hypoxanthine (=0.5 µCi) was added to each well. The plates were incubated for another 24 h under the same conditions. Then, the plates were harvested with a Betaplate cell harvester (Wallac, Zurich, Switzerland). The red blood cells were transferred onto glass fiber filter and washed with distilled water. The dried filters were inserted into a plastic foil with 10 mL of scintillation fluid and counted in a Betaplate liquid scintillation counter. IC50 values were determined from sigmoidal inhibition curves by linear regression using Microsoft Excel. Chloroquine was used as control.

[2] = In vitro cytotoxicity with L-6 cells (Alamar Blue); type: cell-based, rat; settings: rat, Cytotoxicity L-6 Cells IC50
Experimental: as §1
(§2) In vitro cytotoxicity was determined using a primary cell line of rat skeletal myofibroblasts. The assay was performed in 96-well microtiter plates, each well containing 0.1 mL of RPMI 1640 medium, supplemented with 0.1% L-glutamine (200 mM) and 10% fetal bovine serum, as well as 4000 L-6 cells. Serial drug dilutions of 11 3-fold dilution steps (covering a range from 100–0.002 µg/mL) were prepared. After 70 h of incubation time, the plates were inspected under an inverted microscope to ensure sterile conditions and growth of the controls. […] Podophyllotoxin (Sigma P4405) was used as control.

[3] = Parallel artificial membrane permeability assay (PAMPA); settings: pH 7.4
Experimental: The PAMPA was performed using a Corning Gentest Pre-coated PAMPA Plate System at a pH of 7.4. It consists of 96-well polystyrene plates, whereas the donor-plate (bottom plate) is a conventional 96-well microtiter plate. The base of the acceptor-plate (top plate) consists of a porous membrane. The pores are lined with a lipid-oil-lipid trilayer. Stock solutions (10 mM) of each test compound were prepared in DMSO or MeOH and then further diluted to a final concentration of 200 µM with phosphate-buffered saline (PBS) at a pH of 7.4. Compound solutions were then added to the wells of the donor plate and pure PBS was added to each well of the acceptor plate. Compounds and negative control (pure PBS) were tested in quadruplicates. Donor and acceptor plate were coupled and incubated at ambient temperature for 5 h. After that, the plates were separated and solutions from each well of both plates were transferred onto 96-well UV-Star Microplates (Greiner Bio-One). The UV-absorption was measured at different wavelengths (between 200 and 300 nm) by a SpectraMax M3 UV plate reader (Molecular Devices). The concentrations were received from a calibration curve for each substance. The plates were analyzed at a wavelength were the R^2 value of the calibration curve was higher than 0.99 [48]. […] (2) cequ=cDt* VD+cAt* VA/VD+VA where: • cD(t)—compound concentration in donor well at time t.
Recovery of compounds from donor and acceptor wells (mass retention) was calculated as shown in the equation below. Data were only accepted when recovery exceeded 70%. (3) R=1−cDt∗ VD+cAt∗ VA/c0∗ VD where: • R—mass retention (%); • cA(t)—compound concentration in acceptor well at time t; • cD(t)—compound concentration in donor well at time t; • c0—initial compound concentration in donor well; • VD—donor well volume; • VA—acceptor well volume.

[4] = tested on: L-6 cells; test: In vitro cytotoxicity with L-6 cells (Alamar Blue); type: cell-based, rat; settings: rat, 72 h
Experimental: as §1, §2

[5] = target: T1, CYP3A4 (Homo sapiens, UniProt P08684); test: Cytochrom P450 3A4 inhibition assay (P450-Glo, luciferin-IPA); type: in vitro ADME; settings: recombinant human CYP3A4 Supersomes (+ oxidoreductase + b5), probe luciferin-IPA, stock solutions diluted to 20 µM, pH 7.4, triplicate
T1 construct: purchased Corning, Glendale, AZ, USA
Experimental: The CYP3A4 inhibition assay was performed using 96-well White Plates (Greiner Bio-One) at a pH of 7.4. […] Stock solutions were further diluted to a final concentration of 20 µM using water (HPLC grade). The luciferin IPA stock solution (3 mM) was diluted to a final concentration of 0.3 mM using water (HPLC grade). The CYP3A4 reaction mixture was prepared by mixing water (HPLC grade) with potassium phosphate buffer (1 M), luciferin IPA (0.3 mM) and CYP3A4 membrane (1 pmol/µL). The control reaction mixture was prepared using water (HPLC grade), potassium phosphate buffer (1 M), luciferin IPA (0.3 mM) and membrane without CYP activity (1 pmol/µL). Solutions A and B of the NADPH regeneration system were mixed and HPLC grade water was added. The reconstituted luciferin detection reagent was prepared by mixing the reconstituted buffer with esterase with the luciferin detection reagent. Then, solutions of test compounds and standard were added to the wells of the 96-well White Plate, each was tested in triplicate. The CYP3A4 reaction mixture was added to each well and the plate was incubated for 10 min at room temperature. After that, the NADPH regeneration system was added, inducing the reaction followed by an incubation time of 10 min at ambient temperature. By adding the reconstituted luciferin detection reagent, the reaction was terminated, and a luminescent signal was formed. Luminescence was measured by a SpectraMax M3 UV plate reader (Molecular Devices). The relative light units (RLU) were received from a calibration curve with beetle luciferin. […] The CYP3A4 inhibition (%) was calculated from the RLU.

[6] = tested on: P. falciparum 3D7-A10; set-up: method as in PMID 31813848, PMID 32682267; settings: erythrocytic cycle of 40 h, different drug concentrations; cited from earlier work
[7] = tested on: P. falciparum; settings: long-term in vitro, sub-lethal doses, cited from earlier work
[8] = Plasmodium falciparum, NF54, chloroquine-sensitive strain NF54, blood stages
[9] = chloroquine-sensitive strain NF54, blood stages

T1 sequence (P08684 2-503 limits assumed): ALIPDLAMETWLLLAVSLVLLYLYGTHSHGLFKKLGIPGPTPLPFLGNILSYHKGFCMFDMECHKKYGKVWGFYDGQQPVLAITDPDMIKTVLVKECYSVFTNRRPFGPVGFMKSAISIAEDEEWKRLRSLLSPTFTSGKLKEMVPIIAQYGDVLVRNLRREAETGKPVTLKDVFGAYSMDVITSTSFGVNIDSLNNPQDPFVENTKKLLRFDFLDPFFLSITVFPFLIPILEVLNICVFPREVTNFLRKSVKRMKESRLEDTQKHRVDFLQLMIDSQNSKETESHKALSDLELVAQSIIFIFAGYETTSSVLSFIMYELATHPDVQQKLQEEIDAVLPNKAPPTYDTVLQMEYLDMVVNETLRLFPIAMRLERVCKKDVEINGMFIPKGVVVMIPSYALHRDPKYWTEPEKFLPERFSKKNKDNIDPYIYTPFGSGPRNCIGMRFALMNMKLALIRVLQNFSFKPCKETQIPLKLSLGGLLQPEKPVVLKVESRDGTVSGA

Row | SMILES | IC50 [1, 8] | IC50 at 72 h [2] | Papp at 5 h, 200 µM [3] | melting point | IC50 [4] | inhibition at 10 min, 20 µM [5] | IC50 ([1]; chloroquine-sensitive strain NF54, blood stages, H, N-pivaloylpiperazinyl) | IC50 [1, 9] | stage specific activity [6] | resistance development [7] | resistance development ([7]; listed as MMV030666)
1 | CC(C)(C)N1CCN(c2ccccc2NC(=O)c2cccc(C(F)(F)F)c2Oc2ccc(F)cc2)CC1 [Compound 20, 2-(4-Fluorophenoxy)-N-[2-(4-tert-butylpiperazin-1-yl)phenyl]-3-(trifluoromethyl)benzamide] | 2.89 µM | 34.7 µM | 2.48 ×10⁻⁶ cm/s | 142 to 145 °C |  |  |  |  |  |  | 
2 | CC(C)(C)OC(=O)N1CCN(c2ccc(NC(=O)c3cccc(C(F)(F)F)c3Oc3ccccc3)cc2)CC1 [Compound 54, tert-Butyl-4-{4-[2-phenoxy-3-(trifluoromethyl)benzamido]phenyl}piperazine-1-carboxylate] | 1.22 µM | 124 µM | 1.22 ×10⁻⁶ cm/s |  | 185 µM | 80% |  |  |  |  | 
3 | CC(C)(C)C(=O)N1CCN(c2ccc(NC(=O)c3cccc(C(F)(F)F)c3Oc3ccc(F)cc3)cc2)CC1 [Compound 39, N-{4-[4-(2,2-Dimethylpropanoyl)piperazin-1-yl]phenyl}-2-(4-fluorophenoxy)-3-(trifluoromethyl)benzamide] |  | 78 to 99.6 µM | 0.24 ×10⁻⁶ cm/s |  | 99.6 µM | 89% | 0.269 µM | 0.58 µM |  |  | 
4 | O=CN1CCN(c2ccccc2NC(=O)c2cccc(C(F)(F)F)c2Oc2ccc(F)cc2)CC1 [Compound 18, 2-(4-Fluorophenoxy)-N-[2-(4-formylpiperazin-1-yl)phenyl]-3-(trifluoromethyl)benzamide] | 6.58 to 15.6 µM | 31.8 to 35.4 µM | 1.05 ×10⁻⁶ cm/s |  | 31.8 µM | 82% |  | 6.58 µM |  |  | 
5 | CC(C)(C)C(=O)N1CCN(c2ccccc2NC(=O)c2cccc(C(F)(F)F)c2Oc2ccc(F)cc2)CC1 [Compound 19, N-{2-[4-(2,2-Dimethylpropanoyl)piperazin-1-yl]phenyl}-2-(4-fluorophenoxy)-3-(trifluoromethyl)benzamide] | 0.617 to 0.659 µM | 185 to 190 µM | 0.23 ×10⁻⁶ cm/s |  | 185 µM | 94% |  | 0.617 µM |  |  | 
6 | O=C(Nc1ccccc1)c1cccc(C(F)(F)F)c1Oc1ccc(F)cc1 [Compound 12, 2-(4-Fluorophenoxy)-N-phenyl-3-(trifluoromethyl)benzamide] | 9.33 to 21.3 µM | 129 to 202 µM | 10.1 ×10⁻⁶ cm/s |  | 202 µM |  |  | 9.33 µM |  |  | 
7 | CC(C)(C)OC(=O)N1CCN(c2ccccc2NC(=O)c2cccc(C(F)(F)F)c2Oc2ccc(F)cc2)CC1 [Compound 1, tert-Butyl-4-{2-[2-(4-fluorophenoxy)-3-(trifluoromethyl)benzamido]phenyl}piperazine-1-carboxylate] | 0.413 µM | 131 µM | 2.37 ×10⁻⁶ cm/s |  |  | 87% |  |  | peak activity in sub-micromolar concentrations on late stage trophozoites | did neither acquire resistances, nor cross-resistances | development of resistant parasites could not be observed
